Reference: the supplement of paper PMC10307832

Assays:
Experiment in all cases: relative viability (nuclei count vs DMSO), 5 days (fraction); higher = more cells survive
[1] = compound: CN(C)CC1=CC(=CC=C1)N=C(C2=CC=CC=C2)C3=C(NC4=C3C=CC(=C4)C(=O)N(C)C)O + COc1cc2c(Oc3ccc(NC(=O)C4(C(=O)Nc5ccc(F)cc5)CC4)cc3F)ccnc2cc1OCCCN1CCOCC1 [Foretinib] (partner 0.25 µM)
Method in brief: (§1)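 For relative viability, nuclei counts in treated wells were divided by those in vehicle wells. Lung cancer cell lines had been pin-tool dosed in 1536-well plates the day after seeding and cultured for 5 days, then fixed and stained in one step (final 0.05% Triton X-100, 1% formaldehyde, 1 ug/ml Hoechst) and imaged at 4×. Doses were one drug alone or a fixed anchor-drug dose plus five library-drug doses (not always all listed) in √10 steps, and values are duplicate-plate medians.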

[2] = compound: CN(C)CC1=CC(=CC=C1)N=C(C2=CC=CC=C2)C3=C(NC4=C3C=CC(=C4)C(=O)N(C)C)O + C[C@]1(O)C[C@@H](c2nc(-c3ccc4ccc(-c5ccccc5)nc4c3)c3c(N)nccn32)C1 [Linsitinib] (partner 1 µM)
Method in brief: as §1

[3] = compound: CN(C)CC1=CC(=CC=C1)N=C(C2=CC=CC=C2)C3=C(NC4=C3C=CC(=C4)C(=O)N(C)C)O + CCNC(=O)c1noc(-c2cc(C(C)C)c(O)cc2O)c1-c1ccc(CN2CCOCC2)cc1 [Luminespib] (partner 0.01 µM)
Method in brief: as §1

[4] = compound: CN(C)CC1=CC(=CC=C1)N=C(C2=CC=CC=C2)C3=C(NC4=C3C=CC(=C4)C(=O)N(C)C)O + CC1(C)CCC(c2ccc(Cl)cc2)=C(CN2CCN(c3ccc(C(=O)NS(=O)(=O)c4ccc(N[C@H](CCN5CCOCC5)CSc5ccccc5)c(S(=O)(=O)C(F)(F)F)c4)cc3)CC2)C1 [Navitoclax] (partner 0.5 µM)
Method in brief: as §1

## NCI-H650
[1]; first compound 0.08 µM
  relative viability: 1.16
[1]; first compound 0.253 µM
  relative viability: 1.08
[1]; first compound 0.8 µM
  relative viability: 0.988
[1]; first compound 2.53 µM
  relative viability: 0.846
[1]; first compound 8 µM
  relative viability: 1.07
[2]; first compound 0.08 µM
  relative viability: 0.854
[2]; first compound 0.253 µM
  relative viability: 0.965
[2]; first compound 0.8 µM
  relative viability: 0.952
[2]; first compound 2.53 µM
  relative viability: 0.83
[2]; first compound 8 µM
  relative viability: 0.767
[3]; first compound 0.08 µM
  relative viability: 0.843
[3]; first compound 0.253 µM
  relative viability: 0.777
[3]; first compound 0.8 µM
  relative viability: 0.872
[3]; first compound 2.53 µM
  relative viability: 0.667
[3]; first compound 8 µM
  relative viability: 0.861

## NCI-H661
[1]; first compound 0.08 µM
  relative viability: 0.996
[1]; first compound 0.253 µM
  relative viability: 0.963
[1]; first compound 0.8 µM
  relative viability: 0.957
[1]; first compound 2.53 µM
  relative viability: 0.966
[1]; first compound 8 µM
  relative viability: 0.883
[2]; first compound 0.08 µM
  relative viability: 0.623
[2]; first compound 0.253 µM
  relative viability: 0.549
[2]; first compound 0.8 µM
  relative viability: 0.529
[2]; first compound 2.53 µM
  relative viability: 0.574
[2]; first compound 8 µM
  relative viability: 0.455
[3]; first compound 0.08 µM
  relative viability: 0.922
[3]; first compound 0.253 µM
  relative viability: 0.904
[3]; first compound 0.8 µM
  relative viability: 0.964
[3]; first compound 2.53 µM
  relative viability: 0.865
[3]; first compound 8 µM
  relative viability: 0.811

## NCI-H1299
[1]; first compound 0.08 µM
  relative viability: 1.09
[1]; first compound 0.253 µM
  relative viability: 1.06
[1]; first compound 0.8 µM
  relative viability: 1.14
[1]; first compound 2.53 µM
  relative viability: 1.04
[1]; first compound 8 µM
  relative viability: 1.08
[4]; first compound 0.08 µM
  relative viability: 1.14
[4]; first compound 0.253 µM
  relative viability: 1.05
[4]; first compound 0.8 µM
  relative viability: 1.09
[4]; first compound 2.53 µM
  relative viability: 1.03
[4]; first compound 8 µM
  relative viability: 1.01
[2]; first compound 0.08 µM
  relative viability: 1.05
[2]; first compound 0.253 µM
  relative viability: 0.969
[2]; first compound 0.8 µM
  relative viability: 1.02
[2]; first compound 2.53 µM
  relative viability: 0.946
[2]; first compound 8 µM
  relative viability: 0.972

## NCI-H1563
[1]; first compound 0.08 µM
  relative viability: 0.941
[1]; first compound 0.253 µM
  relative viability: 0.967
[1]; first compound 0.8 µM
  relative viability: 0.917
[1]; first compound 2.53 µM
  relative viability: 0.857
[1]; first compound 8 µM
  relative viability: 0.948
[2]; first compound 0.08 µM
  relative viability: 1.19
[2]; first compound 0.253 µM
  relative viability: 1.28
[2]; first compound 0.8 µM
  relative viability: 1.15
[2]; first compound 2.53 µM
  relative viability: 1.08
[2]; first compound 8 µM
  relative viability: 1.14
[3]; first compound 0.08 µM
  relative viability: 0.49
[3]; first compound 0.253 µM
  relative viability: 0.467
[3]; first compound 0.8 µM
  relative viability: 0.538
[3]; first compound 2.53 µM
  relative viability: 0.576
[3]; first compound 8 µM
  relative viability: 0.495

## NCI-H1650
[1]; first compound 0.08 µM
  relative viability: 1.17
[1]; first compound 0.253 µM
  relative viability: 1.12
[1]; first compound 0.8 µM
  relative viability: 1.08
[1]; first compound 2.53 µM
  relative viability: 1.05
[1]; first compound 8 µM
  relative viability: 0.977
[4]; first compound 0.08 µM
  relative viability: 1.23
[4]; first compound 0.253 µM
  relative viability: 1.16
[4]; first compound 0.8 µM
  relative viability: 1.3
[4]; first compound 2.53 µM
  relative viability: 1.15
[4]; first compound 8 µM
  relative viability: 1.08
[3]; first compound 0.08 µM
  relative viability: 0.194
[3]; first compound 0.253 µM
  relative viability: 0.202
[3]; first compound 0.8 µM
  relative viability: 0.227
[3]; first compound 2.53 µM
  relative viability: 0.199
[3]; first compound 8 µM
  relative viability: 0.186

## NCI-H1703
[1]; first compound 0.08 µM
  relative viability: 0.334
[1]; first compound 0.253 µM
  relative viability: 0.489
[1]; first compound 0.8 µM
  relative viability: 0.333
[1]; first compound 2.53 µM
  relative viability: 0.261
[1]; first compound 8 µM
  relative viability: 0.316
[4]; first compound 0.08 µM
  relative viability: 1.07
[4]; first compound 0.253 µM
  relative viability: 1.17
[4]; first compound 0.8 µM
  relative viability: 1.1
[4]; first compound 2.53 µM
  relative viability: 0.717
[4]; first compound 8 µM
  relative viability: 0.222
[2]; first compound 0.08 µM
  relative viability: 0.625
[2]; first compound 0.253 µM
  relative viability: 0.781
[2]; first compound 0.8 µM
  relative viability: 0.701
[2]; first compound 2.53 µM
  relative viability: 0.61
[2]; first compound 8 µM
  relative viability: 0.192

## NCI-H1792
[4]; first compound 0.08 µM
  relative viability: 0.606
[4]; first compound 0.253 µM
  relative viability: 0.594
[4]; first compound 0.8 µM
  relative viability: 0.573
[4]; first compound 2.53 µM
  relative viability: 0.61
[4]; first compound 8 µM
  relative viability: 0.662
[2]; first compound 0.08 µM
  relative viability: 0.548
[2]; first compound 0.253 µM
  relative viability: 0.493
[2]; first compound 0.8 µM
  relative viability: 0.5
[2]; first compound 2.53 µM
  relative viability: 0.372
[2]; first compound 8 µM
  relative viability: 0.424
[3]; first compound 0.08 µM
  relative viability: 0.501
[3]; first compound 0.253 µM
  relative viability: 0.453
[3]; first compound 0.8 µM
  relative viability: 0.386
[3]; first compound 2.53 µM
  relative viability: 0.452
[3]; first compound 8 µM
  relative viability: 0.385

## NCI-H2170
[1]; first compound 0.08 µM
  relative viability: 0.99
[1]; first compound 0.253 µM
  relative viability: 1.01
[1]; first compound 0.8 µM
  relative viability: 1.03
[1]; first compound 2.53 µM
  relative viability: 0.966
[1]; first compound 8 µM
  relative viability: 0.857
[4]; first compound 0.08 µM
  relative viability: 0.64
[4]; first compound 0.253 µM
  relative viability: 0.583
[4]; first compound 0.8 µM
  relative viability: 0.307
[4]; first compound 2.53 µM
  relative viability: 0.565
[4]; first compound 8 µM
  relative viability: 0.36
[3]; first compound 0.08 µM
  relative viability: 0.791
[3]; first compound 0.253 µM
  relative viability: 0.566
[3]; first compound 0.8 µM
  relative viability: 0.53
[3]; first compound 2.53 µM
  relative viability: 0.667
[3]; first compound 8 µM
  relative viability: 0.549

## NCI-H2342
[1]; first compound 0.08 µM
  relative viability: 1.08
[1]; first compound 0.253 µM
  relative viability: 1.06
[1]; first compound 0.8 µM
  relative viability: 0.979
[1]; first compound 2.53 µM
  relative viability: 1.17
[1]; first compound 8 µM
  relative viability: 1.05
[3]; first compound 0.08 µM
  relative viability: 0.775
[3]; first compound 0.253 µM
  relative viability: 0.597
[3]; first compound 0.8 µM
  relative viability: 0.71
[3]; first compound 2.53 µM
  relative viability: 0.771
[3]; first compound 8 µM
  relative viability: 0.871
